Drawing on BindingDB's records for PubMed 37939861 (Hebei Normal University), this text covers IC50 for two compounds.

The experiment in a line: Inhibition of PCSK9 transcriptional activity in human HepG2 cells by luciferase reporter based assay. On the technique in general: In a reporter assay the amount or activity of a reporter protein is the signal.

`CC(C)(C)OC(=O)N1CCN(Cc2ccc3nc(NC(=O)c4ccc(S(=O)(=O)NCCC#N)cc4)sc3c2)CC1`: 3.96 µM corresponded to half-maximal inhibition (IC50). `CCOC(=O)c1ccc2nc(N3CCN(NC(=O)c4ccc(Cl)c(Cl)c4)CC3)sc2c1`: inhibition was half-maximal at 6.53 µM (IC50).

The IC50 is the concentration that gives 50% inhibition. A high value points to lower potency.
